# Assay results from publication PMC4738305, “Metabolism and Disposition of Aditoprim in Swine, Broilers, Carp and Rats” (Scientific Reports, 2016).
# Assays:
# [1] = Tissue distribution and elimination of total radioactivity (total residues) after oral ^3H-ADP for 7 d; format: in vivo, broilers; design: Elimination kinetics Ke: unit not given here; conditions: for Elimination kinetics Ke / Elimination kinetics t1/2 / Concentrations of total residues: broilers; for Elimination kinetics Ke / Elimination kinetics t1/2: 5 mg/kg b.w. 7 days
# Experimental: (§1) (0.1 Ci/g) through oral gavage for 7 consecutive days. All the animals were housed on the basis of their group in the cages or aquaria throughout the whole study period. A group of animals was slaughtered through exsanguination under diethyl ether inhalation of anesthesia in the period of 6 h, 1, 3, 7, 14, and 21 d after the administration. The blood samples were immediately collected into the heparinized tubes and was centrifuged at 1920 × g at 4 °C for 10 min to obtain the plasma. The tissues from the heart, liver, spleen, lung, kidney, craw (broilers), stomach, intestine, fat, skin, muscle, thymus, pancreas, bile, bladder, hair (scale for carp), genital gland, adrenal glands, swim bladder (carp), brain, lymph, and bursa (broilers) were carefully excised and collected. The tissues were thoroughly rinsed with the deionized water to remove the residuary blood, blotted to dryness, and finally to perform the homogenization. In order to avoid cross-contamination the dissecting instruments were washed during the tissue procurements. The blank tissues were collected in order to provide control matrices. The total radioactivity levels in each sample were determined through LSC. The samples extracted from the plasma, bile, and tissues of the liver, kidney, muscle, and fat/skin were analyzed through LC/MS-IT-TOF and v. ARC radiometric detection for metabolite profiling.
# (§2) Measurements of the total radioactivity in each sample were conducted by Packard Tri-Carb 2900 TR liquid scintillation counter (PerkinElmer Life and Analytical Sciences). The detection time was 10 min for two cycles. The scintillation counter data were automatically corrected for counting efficiency by instrument-stored quench curve which was drawn with a series of sealed quenched […] standards. The actual radioactivity of each sample was calculated by subtracting the background value form the mean radioactivity in two blank samples. All the samples were analyzed in duplicate if the sample size allowed this. If the results were differed by more than 10% from the mean value, the samples were reanalyzed. The samples with LSC counts less than 2-fold of the level of the running background were considered to contain insufficient radioactivity for reliable quantification.
# (§3) Aliquots of liquid samples (urine, plasma, bile and raised water, 200 μL) were mixed with 10 mL of Ultima Gold^TM scintillation fluid for the direct analysis by LSC. Aliquots of solid samples (feces and tissues, 200 mg) were digested overnight with 2 mL tissue solubilizer at 50 °C in a shaking water bath, followed by adding 200 μL of 0.1 mol/L EDTA-Na and 200 μL of 30% H2O2, and was bathed at 50 °C for 2 h to bleach. The obtained transparent liquid were mixed with 10 mL of scintillation fluid and finally were counted by LSC. The digestion efficiency was determined by using the blank samples spiked with ^3 H standard for digestion, and the measured radioactivity content in the digested samples were adjusted by using the digestion efficiency values.
# (§4) The concentrations of ADP and/or its metabolites were analyzed by using the following equation: C = L/(2.22 × 10^9 × RM), where C is the concentration of ADP or/and its metabolites (mg/kg), L is the LSC count (dpm), R is the specific activity of the administered dose (0.1 Ci/g), and M is the weight or volume of samples (kg or L). The results are expressed as mean ± SD. The elimination kinetics of terminal phase for ADP and its metabolites were conducted by using the WinNonlin linear regression program (Pharsight corporation, Statistical consultants, Inc., Kentucky, USA).
# [2] = as above; format: in vivo; conditions: rats, 5 mg/kg b.w. 7 days
# Experimental: as §1, §2, §3, §4
compound,measurement,setting,value
[3H]c1c(Cc2cnc(N)nc2N)cc(OC)c(N(C)C)c1OC [^3H-ADP],concentration of total radioactivity,"[1]; broilers bile, within 6 h after oral ^3H-ADP for 7 d",25.2 ± 8.5 mg/kg
same,Elimination kinetics Ke,[1]; Bile,0.71
same,Elimination kinetics t1/2,[1]; Bile,1.08 days
same,Elimination kinetics Ke,[1]; Blood,0.31
same,Elimination kinetics t1/2,[1]; Blood,2.25 days
same,Elimination kinetics Ke,[1]; Brain,0.47
same,Elimination kinetics t1/2,[1]; Brain,1.48 days
same,Elimination kinetics Ke,[1]; Bursa of Fabricius,0.33
same,Elimination kinetics t1/2,[1]; Bursa of Fabricius,2.11 days
same,Elimination kinetics Ke,[1]; Fat,0.42
same,Concentrations of total residues,"[1]; Fat, time 0.25, 5 mg/kg b.w. 7 days",0.78 ± 0.32 mg/kg
same,Concentrations of total residues,"[1]; Fat, time 1, 5 mg/kg b.w. 7 days",0.43 ± 0.05 mg/kg
same,Concentrations of total residues,"[1]; Fat, time 3, 5 mg/kg b.w. 7 days",0.24 ± 0.02 mg/kg
same,Concentrations of total residues,"[1]; Fat, time 7, 5 mg/kg b.w. 7 days",0.04 ± 0.01 mg/kg
same,Elimination kinetics Ke,[1]; Feathers,0.28
same,Elimination kinetics t1/2,[1]; Feathers,2.50 days
same,Concentrations of total residues,"[1]; Feathers, time 0.25, 5 mg/kg b.w. 7 days",0.85 ± 0.17 mg/kg
same,Concentrations of total residues,"[1]; Feathers, time 1, 5 mg/kg b.w. 7 days",0.53 ± 0.12 mg/kg
same,Concentrations of total residues,"[1]; Feathers, time 3, 5 mg/kg b.w. 7 days",0.27 ± 0.03 mg/kg
same,Concentrations of total residues,"[1]; Feathers, time 7, 5 mg/kg b.w. 7 days",0.10 ± 0.01 mg/kg
same,Elimination kinetics Ke,[1]; Glandular stomach,0.59
same,Elimination kinetics t1/2,[1]; Glandular stomach,1.17 days
same,Concentrations of total residues,"[1]; Glandular stomach, time 1, 5 mg/kg b.w. 7 days",1.54 ± 0.36 mg/kg
same,Concentrations of total residues,"[1]; Glandular stomach, time 3, 5 mg/kg b.w. 7 days",0.27 ± 0.05 mg/kg
same,Concentrations of total residues,"[1]; Glandular stomach, time 7, 5 mg/kg b.w. 7 days",0.04 ± 0.00 mg/kg
same,Elimination kinetics Ke,[1]; Heart,0.29
same,Elimination kinetics t1/2,[1]; Heart,2.41 days
same,Elimination kinetics Ke,[1]; Kidney,0.30
same,Elimination kinetics Ke,[1]; Large Intestine,0.90
same,Elimination kinetics t1/2,[1]; Large Intestine,0.77 days
same,Concentrations of total residues,"[1]; Large Intestine, time 0.25, 5 mg/kg b.w. 7 days",6.29 ± 1.45 mg/kg
same,Concentrations of total residues,"[1]; Large Intestine, time 1, 5 mg/kg b.w. 7 days",1.25 ± 0.23 mg/kg
same,Concentrations of total residues,"[1]; Large Intestine, time 3, 5 mg/kg b.w. 7 days",0.12 ± 0.03 mg/kg
same,Concentrations of total residues,"[1]; Large Intestine, time 7, 5 mg/kg b.w. 7 days",0.01 ± 0.00 mg/kg
same,Elimination kinetics Ke,[1]; Liver,0.21
same,Elimination kinetics Ke,[1]; Lung,0.61
same,Elimination kinetics t1/2,[1]; Lung,1.14 days
same,Elimination kinetics Ke,[1]; Maw,0.53
same,Elimination kinetics t1/2,[1]; Maw,1.31 days
same,Elimination kinetics Ke,[1]; Muscle,0.23
same,Concentrations of total residues,"[1]; Muscle, time 0.25, 5 mg/kg b.w. 7 days",1.10 ± 0.44 mg/kg
same,Concentrations of total residues,"[1]; Muscle, time 1, 5 mg/kg b.w. 7 days",0.23 ± 0.10 mg/kg
same,Elimination kinetics Ke,[1]; Muscular stomach,0.46
same,Elimination kinetics t1/2,[1]; Muscular stomach,1.52 days
same,Concentrations of total residues,"[1]; Muscular stomach, time 0.25, 5 mg/kg b.w. 7 days",1.92 ± 0.57 mg/kg
same,Concentrations of total residues,"[1]; Muscular stomach, time 1, 5 mg/kg b.w. 7 days",0.69 ± 0.10 mg/kg
same,Concentrations of total residues,"[1]; Muscular stomach, time 3, 5 mg/kg b.w. 7 days",0.25 ± 0.03 mg/kg
same,Concentrations of total residues,"[1]; Muscular stomach, time 7, 5 mg/kg b.w. 7 days",0.04 ± 0.01 mg/kg
same,Elimination kinetics Ke,[1]; Pancreas,0.57
same,Elimination kinetics t1/2,[1]; Pancreas,1.21 days
same,Elimination kinetics Ke,[1]; Skin,0.43
same,Elimination kinetics t1/2,[1]; Skin,1.61 days
same,Concentrations of total residues,"[1]; Skin, time 0.25, 5 mg/kg b.w. 7 days",1.78 ± 0.42 mg/kg
same,Concentrations of total residues,"[1]; Skin, time 1, 5 mg/kg b.w. 7 days",0.74 ± 0.11 mg/kg
same,Concentrations of total residues,"[1]; Skin, time 3, 5 mg/kg b.w. 7 days",0.25 ± 0.02 mg/kg
same,Concentrations of total residues,"[1]; Skin, time 7, 5 mg/kg b.w. 7 days",0.05 ± 0.01 mg/kg
same,Elimination kinetics Ke,[1]; Small Intestine,0.75
same,Elimination kinetics t1/2,[1]; Small Intestine,0.92 days
same,Concentrations of total residues,"[1]; Small Intestine, time 0.25, 5 mg/kg b.w. 7 days",8.23 ± 0.93 mg/kg
same,Concentrations of total residues,"[1]; Small Intestine, time 1, 5 mg/kg b.w. 7 days",4.06 ± 1.32 mg/kg
same,Concentrations of total residues,"[1]; Small Intestine, time 3, 5 mg/kg b.w. 7 days",0.29 ± 0.04 mg/kg
same,Concentrations of total residues,"[1]; Small Intestine, time 7, 5 mg/kg b.w. 7 days",0.04 ± 0.00 mg/kg
same,Elimination kinetics Ke,[1]; Spleen,0.26
same,Elimination kinetics t1/2,[1]; Spleen,2.63 days
same,Elimination kinetics Ke,[2]; Adrenal,0.28
same,Elimination kinetics Ke,[2]; Bladder,0.56
same,Elimination kinetics t1/2,[2]; Bladder,1.23 days
same,Elimination kinetics Ke,[2]; Blood,0.22
same,Elimination kinetics t1/2,[2]; Blood,3.14 days
same,Elimination kinetics Ke,[2]; Brain,0.26
same,Elimination kinetics t1/2,[2]; Brain,2.69 days
same,Elimination kinetics Ke,[2]; Fat,0.26
same,Elimination kinetics Ke,[2]; Gonades,0.40
same,Elimination kinetics t1/2,[2]; Gonades,1.73 days
same,Elimination kinetics Ke,[2]; Heart,0.24
same,Elimination kinetics t1/2,[2]; Heart,2.95 days
same,Elimination kinetics Ke,[2]; Kidney,0.21
same,Elimination kinetics Ke,[2]; Large Intestine,0.40
same,Elimination kinetics t1/2,[2]; Large Intestine,1.72 days
same,Elimination kinetics Ke,[2]; Liver,0.18
same,Elimination kinetics Ke,[2]; Lung,0.24
same,Elimination kinetics t1/2,[2]; Lung,2.88 days
same,Elimination kinetics Ke,[2]; Muscle,0.25
same,Elimination kinetics Ke,[2]; Pancreas,0.26
same,Elimination kinetics t1/2,[2]; Pancreas,2.65 days
same,Elimination kinetics Ke,[2]; Skin,0.19
same,Elimination kinetics t1/2,[2]; Skin,3.59 days
same,Elimination kinetics Ke,[2]; Small Intestine,0.36
same,Elimination kinetics t1/2,[2]; Small Intestine,1.93 days
same,Elimination kinetics Ke,[2]; Spleen,0.24
same,Elimination kinetics t1/2,[2]; Spleen,2.89 days
same,Elimination kinetics Ke,[2]; Stomach,0.27
same,Elimination kinetics t1/2,[2]; Stomach,2.61 days
same,Elimination kinetics Ke,[2]; Thymus,0.35
same,Elimination kinetics t1/2,[2]; Thymus,2.01 days
